Results taken from a melting point compilation (Tetko et al.; mined from patent text by program, amines drawn as free bases though some values may be those of a salt).

| Structure (SMILES) | melting point [°C] |
| --- | --- |
| CCC(CC)n1cnc2c(Oc3c(C)cc(C)cc3C)nc(C)cc21 | 127 to 131 |
| CC(=O)c1ccc(-c2ccc(F)cc2F)c(F)c1 | 92 to 94 |
| COc1c(-n2cccc2)cc(CC(C#N)=CNc2ccccc2)cc1-n1cccc1 | 152 |
| CCc1nc(NC(=O)NS(=O)(=O)c2ccccc2OC(F)F)nc(OC)n1 | 114 to 116 |
| O=c1c2scc(Br)c2ncn1O | 244 to 247 |
| COc1cccc(Oc2c(NS(=O)(=O)c3ccc(C(C)(C)C)cc3)ncnc2OCCOc2ccncn2)c1 | 149 to 150 |
| CCOC(=O)CC(Cc1ccc(OCCc2nc(-c3ccccc3)oc2C)cc1)C(N)=O (stereo not given) | 142 |
| CS(=O)(=O)NC1CCCc2ccc([N+](=O)[O-])cc21 (stereo not given) | 150 to 152 |
| C[C@H]1CCCC(C)(C)[C@]1(C)C(=O)c1ccc(F)cc1 | 49 to 51 |
| CSc1ncc(Br)cn1 | 63 to 65 |
| CC(C)(C#N)Cc1ccc2cc(CC(C)(C)C#N)ccc2c1 | 178 to 180 |
| COC(=O)c1cc2cc(Br)ccc2nc1C | 150 to 151 |
| O=c1[nH]ccc2c1ccc1[nH]cc(CCN(Cc3ccccc3)Cc3ccccc3)c12 | 250 to 253 |
| CC(=O)CCC(=O)N1CC1C#N (stereo not given) | 93 to 94 |
| Oc1ccc2c(c1)ncn2-c1ccc2cccc(Cl)c2n1 | > 250 |
| CCOC(=O)c1[nH]c2ccc(Cl)cc2c1Cc1ccccc1 | 196 to 197 |
| N#CCc1cc(N)c(F)cc1Cl | 85 to 86 |
| CC(C)Nc1nc(N)nc2c1ncn2C1C=CC(CO)C1 (stereo not given) | 87 to 90 |
| CCOC(=O)c1ccc(OC)c(OCc2nc(C)c(C)nc2C)c1 | 130 |
| Cc1cc2c(cc1C1=NNC(=O)CC1C)NC(=O)C(C)O2 (stereo not given) | 190 to 191 |
| CC(C)(C)c1nc(C(=O)c2cc[nH]n2)nc(C(C)(C)C)c1O | 156 to 161 |
| COC(=O)c1cc(Cl)c(-n2[nH]c(N)cc2=O)c(Cl)c1 | 225 to 229 |
| N#Cc1cc(F)c(N2CCN(Cc3cnc4c(c3)NC(=O)[C@@H]3CCCN43)CC2)cc1F | 224 to 227 |
| CN(C)CC1CN(c2ccccc2)NC1=N (stereo not given) | 117 to 118 |
| COc1ccc(-n2nc(CCC(=O)NO)cc2-c2ccc(Cl)cc2)cc1 | 154 to 156 |

| Structure (SMILES) | melting point [°C] |
| --- | --- |
| Cc1ccc(-c2ccc(C(=O)CBr)cc2)cc1 | 120 to 122 |
| CC(C)(C)OC(=O)Oc1nc2c(N)ncnc2n1Cc1ccccc1 | 287 to 289 |
| CCCCc1nc(SC)c(C(=O)O)n1Cc1ccc(-c2ccccc2-c2nnn[nH]2)cc1 | 180 |
| CC(=C1SC(=O)NC1=O)c1ccc(OCCOc2c(-c3ccc(F)c(F)c3)n(C)c3ccccc3c2=O)c(F)c1 | 204 to 206 |
| Cn1nc(-c2c(F)cccc2Cl)nc1C(O)c1ccc(Cl)cc1 (stereo not given) | 141 to 143 |
| O=C1CNc2ncc(I)cc2N1Cc1cc(F)ccc1C(F)(F)F | 244 to 245 |
| CCCc1c(OCCCCCc2c(Cl)c(Cl)c(Cl)c(OC)c2OC)ccc(C(=O)OC)c1O | 84 to 87 |
| CN1CCN(C2=Nc3ccc(Cl)cc3S(=O)(=O)N2)CC1 | > 300 |
| CCC(=O)N1CCNC1=Nc1ccc(Cl)cc1Cl | 126 to 128 |
| Cc1cc2c(cc1S(=O)(=O)c1ccc(Cl)cc1)OC(C(=O)O)O2 (stereo not given) | 169 to 171 |
| Cc1ccc(S(=O)(=O)N[C@@H]2COC(C)(C)OC[C@H]2OS(=O)(=O)c2ccc(C)cc2)cc1 (relative stereo) | 200 to 202 |
| Cc1ccc([N+](=O)[O-])cc1Nc1cc(Cl)ccn1 | 130 to 133 |
| NC(=O)c1cn2c(nc1=O)CCCCC2 | 219 |
| CC(=O)N1N=C(c2ccc(NC(=O)CCl)cc2)c2cc3c(cc2CC1C)OCO3 (stereo not given) | 139 to 140 |
| COC=C1C(=O)NC(=O)c2ccc(OC)cc21 | 245 to 247 |
| CC(=O)Nc1nc2c(Oc3cc(-c4ccc(C(F)(F)F)cc4NC(=O)C4CCCCN4C(C)C)ncn3)cccc2s1 (stereo not given) | 260 |
| Cc1c2c(nc3c(C(F)(F)F)cccc13)CCCNC2 | 78 |
| O[C@H](COc1cccc2cc(-c3nnc(-c4ccccc4)o3)oc12)CN1CCC(c2ccc3ccccc3c2)CC1 | 78 to 80 |
| COCCOc1cc2ncc(C#N)c(C)c2cc1OC | 188 to 193 |
| CC[C@H](C)[C@H](NC(=O)/C=C1/c2ccccc2C(=S)N[C@H]1[C@@H](C)CC)C(=O)N[C@H](C(=O)OC)[C@@H](C)CC | 178 to 181 |
| CC(C)Oc1cc(Oc2ccc(C(F)(F)F)cn2)ccc1CCCOc1cc(CCC(=O)O)n(-c2ccccc2)n1 | 130 |
| CCCCc1oc2ccccc2c1C(=O)NCc1ccc2c(Br)c(OC(Cc3ccccc3)C(=O)OC)ccc2c1 (stereo not given) | 110 to 112 |
| CC(CC(=O)O)CC(=O)N(c1ccccc1)c1cc(C(C)(C)C)c(O)c(C(C)(C)C)c1 (stereo not given) | 153 to 155 |
| CCCCCCCCCCCCC(C(=O)O)S(=O)(=O)c1ccc(OC)cc1 (stereo not given) | 82 |
| Cc1cnc(C#N)n1Cc1ccccc1 | 51.5 to 52.5 |

| Structure (SMILES) | melting point [°C] |
| --- | --- |
| COc1ccc(C[C@H]2C3=C(CCCC3)CCN2C(C)=O)cc1 | 80 to 81.5 |
| CC(=O)Nc1nc(C)c(S(=O)(=O)N2CCC(O)C2)s1 (racemic) | 241 |
| Brc1c(OCc2nnn[nH]2)ccc2cc(-c3csc(-c4ccccc4)n3)ccc12 | 227 to 231 |
| CCCNc1ncnc2c1ncn2Cc1ccc(OC)c(OC)c1 | 117 to 120 |
| CCCCOCCOc1ccc(-c2ccc3c(c2)C=C(C(=O)Nc2ccc(CN(C)C4CCOCC4)cc2)CCS3(=O)=O)cc1 | 194 to 196 |
| CC(C)c1nc(-c2ccccc2)nc(-c2ccc(F)cc2)c1C=CI | 119 to 122 |
| Cc1c(C(F)(F)F)n(C)c(=O)n(-c2cc(N)c(C#C[Si](C)(C)C)cc2F)c1=O | 192 to 198 |
| Cc1ccc(S(=O)C2CC3C(=O)C(c4ccc(F)cc4)=CC2N3C)cc1 (mixture of isomers) | 186 |
| CN1CCC(O)(c2cccn2C)CC1 | 123 to 124 |
| O=[N+]([O-])c1ccccc1Nc1ccc(I)cc1 | 171 to 172 |
| O=C1NC(O)c2cc(Br)ccc21 (stereo not given) | 258 to 261 |
| COc1cccc(C23CCN(C)CC2Cc2c([nH]c(C(=O)N4CCCC4)c2C)C3)c1 (stereo not given) | 171 to 173 |
| O=[N+]([O-])C1([N+](=O)[O-])CN(C(F)(F)F)C1 | 70 to 71 |
| Cc1cc2c(c3oc4ccccc4c(=O)c13)CC(C(=O)O)O2 (stereo not given) | 231 to 234 |
| COc1ccc(NC(=O)c2cc(O[Si](C)(C)C(C)(C)C)ccc2NC(=O)c2ccc(C(C)(C)C)cc2)cc1 | 207 |
| Cc1c(Br)c(=O)oc2nn(Cc3ccccc3Cl)c(C)c12 | 206 to 208 |
| Cc1cccc2c1N(CC(=O)c1cccc([N+](=O)[O-])c1)C(=O)C(NC(=O)Nc1cccc(-c3nnn[nH]3)c1)N=C2c1ccccc1F (stereo not given) | 194 to 198 |
| O=C(NC1CCc2c[nH]cc2C1)[C@@H]1CCCN1C(=O)[C@@H](CC1CCCCC1)NS(=O)(=O)Cc1ccccc1 (stereo not given in full) | 106 to 109 |
| CCc1c(Oc2ccc(C(F)(F)F)cc2[N+](=O)[O-])n[nH]c1C | 92 to 93 |
| CCOC(=O)Cn1c2ccc(Cl)ccc-2c(C(=O)OCC)c1=O | 177 to 179 |
| CCOC(=O)c1cnc(N)nc1O | 280 |
| COc1cc(O)ccc1-c1nc2cnccc2[nH]1 | 255 |
| CC(C)(c1ccccc1)c1ccc2nc(-c3ccc(C(F)(F)F)cc3)oc(=O)c2c1 | 104 to 105 |
| COC(=O)NC1=NCC(c2ccc(I)cc2)CN1 (stereo not given) | 209 to 210 |
| Cc1nc(S(=O)(=O)N(C(=O)c2ccccc2)c2c(F)cccc2F)nn1-c1ncccn1 | 218 to 221 |

| Structure (SMILES) | melting point [°C] |
| --- | --- |
| Cc1nc(CO)ccc1CO | 94 to 96 |
| O=c1oc2c(c(=O)n1C1CCCCCCC1)CCC2 | 48 to 51 |
| CCn1c(N)c(C(=O)NC)c(=O)c2ccc(-c3ccc(CC(=O)O)cc3)nc21 | 260 |
| CCOC(=O)C=CC(C)=CC=O | 48 to 49 |
| Cn1cc(C(=O)NCc2ccc(Cl)cc2)c(=O)c2cc(CN3CCC[C@@H]3[C@@H](O)c3ccccc3)sc21 (relative stereo) | 158 to 162 |
| O=c1ccc2c(CO)nccc2[nH]1 | 294 to 300 |
| COC1CC(OC)(OC)C(=O)O1 (stereo not given) | 55 |
| CCOC(=O)c1cn(C(C)CCl)c2cc(Cl)c(F)cc2c1=O (stereo not given) | 151 to 153 |
| C(=C\c1nc2ccccc2n1-c1ccccn1)/c1ccco1 | 164 to 165 |
| C#Cc1cc(F)c(-n2c(=O)cc(C(F)(F)F)n(C)c2=O)c2c1OC(C)C2 (stereo not given) | 69 to 72.5 |
| CCCCn1c(=O)n(CC)c(=O)c2c1ncn2S(=O)(=O)c1ccc(C)cc1 | 135 to 139 |
| Cc1ccc(-c2nc(C)c3c(=O)[nH]ncn23)cc1 | 251 to 253 |
| CC(C)(C)NC(=O)C1(O)CC(C)(C)NC(C)(C)C1 | 134 to 136 |
| COC(=O)c1ccc2c(c1)N(C1CC1)C=NS2(=O)=O | 191 to 194 |
| CC(C)C(NS(=O)(=O)c1ccc(Cl)cc1)c1ccc(CCCC(=O)O)cc1 (single isomer, unassigned; (+)) | 117 to 119 |
| CCCOC(=O)Cc1cc(O)c(C)cc1O | 101 |
| CC1=C(/C=C/C(C)=C/C=C\c2ccc(C(=O)O)cc2)C(C)(C)CCC1 | 179 |
| CC1(C)CCC(C)(C)c2cc3c(cc21)CCc1c(-c2ccc(C(=O)O)cc2)c[nH]c1-3 | 268 to 270 |
| CC(=O)n1cc(C2=C(c3cn(C)c4ccccc34)C(=O)NC2=O)c2ccccc21 | 252 to 253 |
| C=CCc1cc(Nc2ccn(-c3ccccc3)n2)cc(CC=C)c1O | 87 to 88 |
| CCCCCCCCCCOc1cc2c(cc1CCC(=O)O)C(=O)c1cc(C(=O)O)ccc1-2 | 218 to 220 |
| CC1(C)CC(n2cc(C#N)c3ccccc32)c2cc(C#N)ccc2O1 (stereo not given) | 175 to 178 |
| COC(=S)OC(C(=O)OC(c1ccccc1)c1ccccc1)c1ccccc1 (stereo not given) | 74 |
| CNC(=O)OCc1c(COC(=O)NC)c2n(c1C)Cc1ccccc1C2 | 174 to 176 |
| N#Cc1nnc2n1-c1ccc(Cl)cc1C(c1ccccc1)=NC2 | 191 to 192 |
